Target: Collagenase 3 (Homo sapiens, UniProt P45452)
Experiment: Inhibitory activity against recombinant human matrix metalloprotease-13

Row | SMILES | IC50
1 | COCCOCCC#CCC(NS(=O)(=O)c1ccc(-c2ccc(OC)cc2)cc1)C(=O)O (configuration not stated) | 87.1 nM
2 | O=C(O)C(CC#Cc1ccccc1)NS(=O)(=O)c1ccc(C#Cc2ccccc2)cc1 (configuration not stated) | 89.1 nM

Reference: ChEMBL document CHEMBL1135341, “Analogue based design of MMP-13 (Collagenase-3) inhibitors” (Bioorg Med Chem Lett, 2002)
